Data from the Kinase Knowledgebase extract (Sharma et al. 2016).

The compounds below were run against MAPK14 (UniProt Q16539) (assay: p38 Kinase Inhibition).
MAPK14, sequence (Q16539 whole entry, looked up): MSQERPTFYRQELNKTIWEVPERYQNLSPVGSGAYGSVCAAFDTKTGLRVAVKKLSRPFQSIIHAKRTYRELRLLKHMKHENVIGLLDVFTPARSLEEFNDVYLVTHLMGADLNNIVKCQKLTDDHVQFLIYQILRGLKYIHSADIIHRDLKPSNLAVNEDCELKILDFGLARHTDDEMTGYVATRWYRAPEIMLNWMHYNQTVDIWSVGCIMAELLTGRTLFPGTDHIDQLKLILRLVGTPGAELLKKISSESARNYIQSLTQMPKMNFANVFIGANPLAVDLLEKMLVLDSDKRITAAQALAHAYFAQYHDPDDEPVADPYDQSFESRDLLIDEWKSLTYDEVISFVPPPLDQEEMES
O=C(Nc1cccc(C(F)(F)F)c1)N1CCC(n2cnc(-c3ccc(F)cc3)c2-c2ccnc(Nc3ccccc3C(F)(F)F)n2)CC1 showed an IC50 of under 50 µM. Compound Cc1cc(F)ccc1Nc1nccc(-c2c(-c3ccc(F)cc3)ncn2C2CCN(C(=O)OC(C)(C)C)CC2)n1 has an IC50 of under 50 µM. In the case of Fc1ccc(-c2ncn(C3CCCCC3)c2-c2ccnc(NCCc3c[nH]cn3)n2)cc1, the IC50 is reported as under 50 µM. Cc1cccc(C)c1Nc1nccc(-c2c(-c3ccc(F)cc3)ncn2C2CCNCC2)n1 was tested, and the IC50 was under 50 µM. For COc1ccc(C(=O)NCCn2cnc(-c3ccc(F)cc3)c2-c2ccnc(NCc3ccc(Cl)c(Cl)c3)n2)cc1OC, the IC50 was under 50 µM. With Fc1ccc(-c2ncn(C3CCCCC3)c2-c2ccnc(NCCC(c3ccccc3)c3ccccc3)n2)cc1 the IC50 was under 50 µM. Compound Fc1ccc(-c2ncn(C3CCCCC3)c2-c2ccnc(Nc3ccccc3)n2)cc1 has an IC50 of under 50 µM. Work on Fc1ccc(-c2ncn(C3CCCC3)c2-c2ccnc(Nc3ccccc3)n2)cc1 yielded an IC50 of under 50 µM. Fc1ccc(-c2ncn(C3CCCCC3)c2-c2ccnc(NCCCN3CCOCC3)n2)cc1 showed an IC50 of under 50 µM. For CC(C)n1cnc(-c2ccc(F)cc2)c1-c1ccnc(Nc2ccccc2)n1, the IC50 was under 50 µM. Fc1ccc(Nc2nccc(-c3c(-c4ccc(F)cc4)ncn3-c3ccc(F)cc3)n2)cc1 was tested, and the IC50 was under 50 µM. Compound Fc1ccc(-c2ncn(-c3ccc(F)cc3)c2-c2ccnc(Nc3ccccc3)n2)cc1 has an IC50 of under 50 µM. Fc1ccc(-c2ncn(C3CCCCC3)c2-c2ccnc(NCc3cccnc3)n2)cc1 gave an IC50 of under 50 µM. Compound Cc1ccccc1Nc1nccc(-c2c(-c3ccc(F)cc3)ncn2-c2ccc(F)cc2)n1 has an IC50 of under 50 µM. For Fc1ccc(-c2ncn(-c3ccc(F)cc3)c2-c2ccnc(N3CCOC(Nc4ccccc4)C3)n2)cc1 (stereo not given), the IC50 was under 50 µM. With CCOCC(=O)NCCn1cnc(-c2ccc(F)cc2)c1-c1ccnc(NCc2ccc(OC)cc2)n1 the IC50 was under 50 µM. In the case of CC(CCc1ccccc1)Nc1nccc(-c2c(-c3ccc(F)cc3)ncn2C2CCCCC2)n1 (stereo not given), the IC50 is reported as under 50 µM. In the case of Cc1cccc(C)c1Nc1nccc(-c2c(-c3ccc(F)cc3)ncn2-c2ccc(F)cc2)n1, the IC50 is reported as under 50 µM. Cc1ccc(F)cc1Nc1nccc(-c2c(-c3ccc(F)cc3)ncn2C2CCNCC2)n1 gave an IC50 of under 50 µM. Cc1ccccc1Nc1nccc(-c2c(-c3ccc(F)cc3)ncn2C2CCNCC2)n1 was tested, and the IC50 was under 50 µM.
